Assay results taken from patent US20230414839A1, “COATED MEDICAL PRODUCT” (HEMOTEQ AG, priority 2020, published 2023).
Like-named read-outs stand apart in the source and are kept apart here. Each block holds one molecule with its values, some of them ahead of it.

What was measured:
[1] = cited from earlier work
[2] = crystal suspensions of microcrystalline everolimus in different solvent mixtures (Example 6); type: physicochemical; set-up: key: +++: good; +/−: average; −−−: poor; conditions: 770 mg trioctanoylglycerol per 100 mL
Experimental: To prepare the solutions, 770 mg of trioctanoylglycerol was dissolved in the polar solvent. Then the nonpolar solvent was added. It was then homogenized and filtered.
To test whether crystal suspensions could be prepared, 10 mL of each of the solutions was carefully added to 200 mg of everolimus in the form of microcrystals at room temperature. After combining, it was tested whether stable crystal suspensions were obtained.

[3] = preparation and stability of crystal suspensions of microcrystalline rapamycin / everolimus in solutions of different tri-O-acylglycerols (Examples 2, 3); conditions: ethyl acetate/heptane solution; standing and temperature elevation
Source text: In the first step, solutions of tri-O-acylglycerols were first prepared in a solvent mixture. Subsequently, the solutions were combined with microcrystals of rapamycin and everolimus to investigate which tri-O-acylglycerols could be used to obtain stable crystal suspensions. The composition of the solvents and solvent mixture varied depending on the active agent used. The solutions and solvent mixtures prepared in the example apply to rapamycin (SIR) and everolimus (EVR). For the preparation of the solutions, an ethyl acetate/heptane solvent mixture was used here as an example.
To prepare the solutions, 770 mg of the respective tri-O-acylglycerol and optionally 150 mg BHT were dissolved in 14 g ethyl acetate (15.6 mL). Then, 57.4 g of n-heptane (84.4 mL) was added. Subsequently, homogenization and filtration were performed. The total volume of the solvent mixture is 100 mL.
To a precisely weighed amount of dry microcrystals of the previously prepared limus active agent, a defined amount of the solutions containing tri-O-acylglycerol and optionally antioxidant is carefully added. It was investigated whether the microcrystals of the limus active agent are not soluble in the solutions and whether suspensions are formed.
To check whether crystal suspension can be prepared, to each 200 mg of rapamycin in the form of microcrystals or 200 mg of everolimus in the form of microcrystals were carefully added 10 mL of one of the solutions 1a) to 1t) at room temperature. Three mixtures of 10 mL of solution for each solution were prepared. After combining, it was tested whether the microcrystals of limus active agents dissolved directly in the solutions. For solutions where there was no immediate dissolution of the microcrystals of the limus active agents, the suspensions of the solutions without antioxidant were allowed to stand for a period of 100 h and tested again to see if the microcrystals of the limus active agents dissolved.
Three mixtures of 10 mL of solution for each solution were prepared. After combining, it was tested whether the microcrystals of limus active agents dissolved directly in these solutions. For solutions where there was no immediate dissolution of the microcrystals of the limus active agents, the suspensions of the solutions without antioxidant were allowed to stand for a period of 100 hours and tested again to see if the microcrystals of the limus active agents dissolved.

[4] = cited from earlier work; remark: listed apart in the source
[5] = non-solvents, rounded values (Table 2)
[6] = nonpolar organic solvents, rounded values (Table 4)
[7] = nonpolar organic solvents (Table 8)
[8] = polar organic solvents, rounded values (Table 6)
[9] = polar organic solvents (Table 7)

SMILES: C1COCCO1 [1,4-Dioxane]
log KOW [1]: about −0.4

SMILES: CC(C)CC(C)(C)C [2,2,4-Trimethylpentane]
logKOW [1, 5]: 4.1

SMILES: CCC(C)(C)C [2,2-Dimethylbutane]
logKOW [1, 5]: 3.8

SMILES: CCCC(C)(C)C [2,2-Dimethylpentane]
logKOW [1, 5]: 3.8

SMILES: CCC(C)C(C)C (stereo not shown) [2,3-Dimethylpentane]
logKOW [1, 5]: 3.8

SMILES: CC(C)Cc1ccccc1 [2-Methyl-1-phenylpropane]
logKOW [1, 6]: 3.4

SMILES: CCCCC(C)C [2-Methylhexane]
logKOW [1, 5]: 3.7

SMILES: CCCC(C)C [2-Methylpentane]
logKOW [1, 5]: 3.6

SMILES: CCC(C)c1ccccc1 (stereo not shown) [2-Phenylbutane]
logKOW [1, 6]: 3.4

SMILES: COc1ccccc1 [Anisol]
logKOW [1, 6]: 2.1

SMILES: Clc1ccccc1 [Chlorobenzene]
log KOW [1]: about 2.9
logKOW [1, 6]: 2.9

SMILES: CC(C)c1ccccc1 [Cumol]
logKOW [1, 6]: 3.4

SMILES: C1CCCCCCCCC1 [Cyclodecane]
logKOW [1, 5]: 5.5

SMILES: C1CCCCCC1 [Cycloheptane]
logKOW [1, 5]: 4

SMILES: C1CCCCCCCC1 [Cyclononan]
logKOW [1, 5]: 5.1

SMILES: C1CCCC1 [Cyclopentane]
logKOW [1, 5]: 3.0
logKOW [1, 7]: 3.00

SMILES: CCCCCCCCCC [Decan]
logKOW [1, 5]: 6.3
logKOW [1, 7]: 6.25

SMILES: CCCOCCC [Dipropyl ether]
logKOW [1, 8]: +2.0

SMILES: CCOc1ccccc1 [Ethoxybenzene]
logKOW [1, 6]: 2.5

SMILES: CCOC(C)=O [Ethyl acetate]
logKOW [1, 9]: 0.73
logKOW [1, 8]: +0.7

SMILES: CCc1ccccc1 [Ethylbenzene]
logKOW [1, 6]: 3.2

Crystal suspension ([2]; Acetone/Cyclohexane 10:90 (v/v)): +++
Crystal suspension ([2]; Acetone/Cyclohexane 30:70 (v/v)): +/−
Crystal suspension ([2]; Acetone/Cyclohexane 40:60 (v/v)): +/−
Crystal suspension ([2]; Acetone/Cyclohexane 50:50 (v/v)): −−−
Crystal suspension ([2]; Acetone/Cyclohexane 60:40 (v/v)): −−−
Crystal suspension ([2]; Acetone/Heptane 10:90 (v/v)): +++
Crystal suspension ([2]; Acetone/Heptane 30:70 (v/v)): +/−
Crystal suspension ([2]; Acetone/Heptane 40:60 (v/v)): +/−
Crystal suspension ([2]; Acetone/Heptane 50:50 (v/v)): −−−
Crystal suspension ([2]; Acetone/Heptane 60:40 (v/v)): −−−
Crystal suspension ([2]; Acetone/Hexane 10:90 (v/v)): +++
Crystal suspension ([2]; Acetone/Hexane 30:70 (v/v)): +/−
Crystal suspension ([2]; Acetone/Hexane 40:60 (v/v)): +/−
Crystal suspension ([2]; Acetone/Hexane 50:50 (v/v)): −−−
Crystal suspension ([2]; Acetone/Hexane 60:40 (v/v)): −−−
Crystal suspension ([2]; Ethanol/Cyclohexane 10:90 (v/v)): +++
Crystal suspension ([2]; Ethanol/Cyclohexane 40:60 (v/v)): +/−
Crystal suspension ([2]; Ethanol/Cyclohexane 50:50 (v/v)): −−−
Crystal suspension ([2]; Ethanol/Cyclohexane 60:40 (v/v)): −−−
Crystal suspension ([2]; Ethanol/Heptane 10:90 (v/v)): +++
Crystal suspension ([2]; Ethanol/Heptane 40:60 (v/v)): +/−
Crystal suspension ([2]; Ethanol/Heptane 50:50 (v/v)): −−−
Crystal suspension ([2]; Ethanol/Heptane 60:40 (v/v)): −−−
Crystal suspension ([2]; Ethanol/Hexane 10:90 (v/v)): +++
Crystal suspension ([2]; Ethanol/Hexane 40:60 (v/v)): +/−
Crystal suspension ([2]; Ethanol/Hexane 50:50 (v/v)): −−−
Crystal suspension ([2]; Ethanol/Hexane 60:40 (v/v)): −−−
Crystal suspension ([2]; Ethyl acetate/Cyclohexane 10:90 (v/v)): +++
Crystal suspension ([2]; Ethyl acetate/Cyclohexane 30:70 (v/v)): +++
Crystal suspension ([2]; Ethyl acetate/Cyclohexane 40:60 (v/v)): +++
Crystal suspension ([2]; Ethyl acetate/Cyclohexane 50:50 (v/v)): +/−
Crystal suspension ([2]; Ethyl acetate/Cyclohexane 60:40 (v/v)): +/−
Crystal suspension ([2]; Ethyl acetate/Heptane 10:90 (v/v)): +++
Crystal suspension ([2]; Ethyl acetate/Heptane 30:70 (v/v)): +++
Crystal suspension ([2]; Ethyl acetate/Heptane 40:60 (v/v)): +++
Crystal suspension ([2]; Ethyl acetate/Heptane 50:50 (v/v)): +/−
Crystal suspension ([2]; Ethyl acetate/Heptane 60:40 (v/v)): +/−
Crystal suspension ([2]; Ethyl acetate/Hexane 10:90 (v/v)): +++
Crystal suspension ([2]; Ethyl acetate/Hexane 30:70 (v/v)): +++
Crystal suspension ([2]; Ethyl acetate/Hexane 40:60 (v/v)): +++
Crystal suspension ([2]; Ethyl acetate/Hexane 50:50 (v/v)): +/−
Crystal suspension ([2]; Ethyl acetate/Hexane 60:40 (v/v)): +/−
Crystal suspension ([2]; iso-propanol/Cyclohexane 10:90 (v/v)): +++
Crystal suspension ([2]; iso-propanol/Cyclohexane 30:70 (v/v)): +/−
Crystal suspension ([2]; iso-propanol/Cyclohexane 40:60 (v/v)): +/−
Crystal suspension ([2]; iso-propanol/Cyclohexane 50:50 (v/v)): −−−
Crystal suspension ([2]; iso-propanol/Cyclohexane 60:40 (v/v)): −−−
Crystal suspension ([2]; iso-propanol/Heptane 10:90 (v/v)): +++
Crystal suspension ([2]; iso-propanol/Heptane 30:70 (v/v)): +/−
Crystal suspension ([2]; iso-propanol/Heptane 40:60 (v/v)): +/−
Crystal suspension ([2]; iso-propanol/Heptane 50:50 (v/v)): −−−
Crystal suspension ([2]; iso-propanol/Heptane 60:40 (v/v)): −−−
Crystal suspension ([2]; iso-propanol/Hexane 10:90 (v/v)): +++
Crystal suspension ([2]; iso-propanol/Hexane 30:70 (v/v)): +/−
Crystal suspension ([2]; iso-propanol/Hexane 40:60 (v/v)): +/−
Crystal suspension ([2]; iso-propanol/Hexane 50:50 (v/v)): −−−
Crystal suspension ([2]; iso-propanol/Hexane 60:40 (v/v)): −−−
SMILES: CO[C@H]1C[C@@H]2CC[C@@H](C)[C@@](O)(O2)C(=O)C(=O)N2CCCC[C@H]2C(=O)O[C@H]([C@H](C)C[C@@H]2CC[C@@H](OCCO)[C@H](OC)C2)CC(=O)[C@H](C)/C=C(\C)[C@@H](O)[C@@H](OC)C(=O)[C@H](C)C[C@H](C)/C=C/C=C/C=C/1C [Everolimus, 40-O-(2-hydroxyethyl)rapamycin]

SMILES: OCC(O)CO [Glycerin]
logKOW [1, 8]: −1.8

SMILES: CCCCCCC [Heptane]
logKOW [1, 5]: 4.5
logKOW [1, 7]: 4.50

SMILES: CCC(C)C [Isopentane]
logKOW [1, 5]: 3.2

SMILES: COC(C)=O [Methyl acetate]
logKOW [1, 8]: +0.2

SMILES: CC1CCCC1 [Methylcyclopentane]
logKOW [1, 5]: 3.4

SMILES: CN1CCCC1=O [N-methylpyrrolidone]
logKOW [1, 8]: −0.5

SMILES: CCCCCCCCC [Nonan]
logKOW [1, 5]: 5.7
logKOW [1, 7]: 5.65

SMILES: CCCCCCCC [Octane]
logKOW [1, 5]: 5.2
logKOW [1, 7]: 5.15

SMILES: CCC(=O)O [Propionic acid]
logKOW [1, 9]: 0.32

SMILES: CCCC(C)=O [Solution 2-Pentanone, 2-Pentanone]
logKOW [1, 9]: 0.84
logKOW [1, 8]: +0.9

SMILES: FC(F)(F)C(F)(F)C(F)(F)C(F)(F)C(F)(F)C(F)(F)F [Tetradecafluorohexane]
logKOW [1, 6]: 5.8

SMILES: C1CCOC1 [Tetrahydrofuran (THF), Tetrahydrofuran]
logKOW [1, 9]: 0.46
logKOW [1, 8]: +0.5

SMILES: CCCCCCCCCC(=O)OCC(COC(=O)CCCCCCCCC)OC(=O)CCCCCCCCC [Tridecanoylglycerol, tridecanoylglycerol]
stability of the crystal suspension of microcrystalline everolimus and rapamycin with the tri-O-acylglycerol [3]: remained stable even after 100 h and under temperature elevation

SMILES: CCCCCCCCC(=O)OCC(COC(=O)CCCCCCCC)OC(=O)CCCCCCCC [Trinonanoylglycerol, trinonanoylglycerol]
stability of the crystal suspension of microcrystalline everolimus and rapamycin with the tri-O-acylglycerol [3]: remained stable after 24-48 hours and under temperature elevation
solubility in water [4]: practically insoluble in water

SMILES: CCCCCCCC(=O)OCC(COC(=O)CCCCCCC)OC(=O)CCCCCCC [Trioctanoylglycerol, trioctanoylglycerol]
stability of the crystal suspension of microcrystalline everolimus and rapamycin with the tri-O-acylglycerol [3]: remained stable even after 100 h and under temperature elevation
solubility in water [4]: practically insoluble in water

SMILES: O [Water]
logKOW ([1]; polar organic solvents, rounded orientation values (Table 5)): approx. −1.4

SMILES: CC(C)Cc1ccccc1 [iso-butylbenzene]
logKOW [1, 6]: 4.1

SMILES: CCCOC(C)=O [n-Propyl acetate]
logKOW [1, 8]: +1.4

SMILES: Clc1ccccc1Cl [o-Dichlorobenzene]
logKOW [1, 6]: 3.4

SMILES: CC(C)(C)C1CCCCC1 [tert-butylcyclohexane]
logKOW [1, 5]: 4.0
